The target in one experiment is T1, αvβ5 (Homo sapiens, UniProt P06756+P18084).
T1 construct: expressed in transfected cells; host or cells: HEK 293 (293/b5)
The experiment in a line: 293/b5 cell adhesion assay for αvβ5 function. Type of experiment: cell-based. The following applies: 293/b5 cells, adhesion to human vitronectin. Here is the method: 293/b5 Cell Adhesion Assay for αvβ5 Function.
(§1) Purified human vitronectin (Calbiochem/EMD Biosciences) diluted to 0.25 μg/ml in TS buffer (25 mM Tris 7.4, 150 mM NaCl) was added to wells (100 μl/well) of a 96-well microtiter plate (Immulon 2HB 96-well; VWR Scientific) and incubated overnight at 4° C. The solution in each well was then replaced with 200 μl of blocking buffer (TS with 1% bovine serum albumin), and the plate incubated for 1 hr at 37° C. Compounds were diluted in test tubes to 2× the peak testing concentration in cell adhesion buffer consisting of Hanks Buffered Salts Solution (HBSS, cation-free, Sigma), 0.1% bovine serum albumin, 25 mM HEPES, and 200 μM MnCl2. […] The cells were washed with the cell adhesion buffer, counted using a hemocytometer, centrifuged and resuspended in cell adhesion buffer at 3×10^6 cells/ml. […] Remaining attached cells were detected by addition of 100 μl/well p-nitrophenylphosphate (Sigma) solution (15 mg tablet dissolved in 25 ml 50 mM NaAcetate, pH5; 0.5% Triton-X-100), incubation for 30 min at 37° C., and then addition of 50 μl/well 1N NaOH to stop the enzyme reaction. Plates were read by colorimetric detection at 405 nm wavelength using a Tecan Safire II plate reader. Concentration-response curves were constructed by non-linear regression (best fit) analysis, and IC50 values were calculated for each compound. […]

Experiment [1] addresses T2, recombinant human biotinylated integrin αvβ8 (Homo sapiens, UniProt P06756+P26012).
T2 construct: biotin (biotinylated heterodimer); purchased R&D Systems
Kind of experiment: Solid phase receptor assay for αvβ8 function. The following applies: purified integrin binding to LAP-coated plate. The procedure: Solid Phase Receptor Assay for αvβ8 Function.
Purified human LAP protein (R&D Systems, Inc) diluted to 0.5 μg/ml in TBS buffer (25 mM Tris 7.4, 137 mM NaCl, 2.7 mM KCl, 1 mM CaCl2, 1 mM MgCl2, 1 mM MnCl2) was added to wells (100 μl/well) of a 96-well half-well transparent microtiter plate (Costar 3690), and incubated overnight at 4° C. Wells were washed 3 times with 150 μl TBS, and 200 μl of blocking buffer (TBS with 1% bovine serum albumin) were added. The plate was incubated for 1 hr at 37° C., and then washed 3× with TBS/0.1% bovine serum albumin. Purified recombinant human biotinylated integrin αvβ8 (R&D Systems) was diluted to 0.1 μg/ml in TBS/0.1% bovine serum albumin. Compounds were diluted into the integrin solution and then 50 μl was added to empty wells of the washed LAP-coated plate, according to a standard template, with each sample repeated in triplicate. After incubation for one hour at room temperature, the plate was washed 3× with 150 μl of TBS/0.1% BSA. 50 μl of streptavidin-conjugated horseradish peroxidase (R&D Systems) was added to the wells, and the plate incubated for 20 min at room temperature. […] Plates were read by colorimetric detection at 650 nm wavelength using a Tecan Safire II plate reader. Concentration-response curves were constructed by non-linear regression (best fit) analysis, and IC50 values were calculated for each compound.

The target in a further experiment is T3, αvβ3 (Homo sapiens, UniProt P05106+P06756).
T3 construct: expressed in transfected cells; host or cells: HEK 293 (293/b3)
T3 sequence (P06756 31-889 limits assumed): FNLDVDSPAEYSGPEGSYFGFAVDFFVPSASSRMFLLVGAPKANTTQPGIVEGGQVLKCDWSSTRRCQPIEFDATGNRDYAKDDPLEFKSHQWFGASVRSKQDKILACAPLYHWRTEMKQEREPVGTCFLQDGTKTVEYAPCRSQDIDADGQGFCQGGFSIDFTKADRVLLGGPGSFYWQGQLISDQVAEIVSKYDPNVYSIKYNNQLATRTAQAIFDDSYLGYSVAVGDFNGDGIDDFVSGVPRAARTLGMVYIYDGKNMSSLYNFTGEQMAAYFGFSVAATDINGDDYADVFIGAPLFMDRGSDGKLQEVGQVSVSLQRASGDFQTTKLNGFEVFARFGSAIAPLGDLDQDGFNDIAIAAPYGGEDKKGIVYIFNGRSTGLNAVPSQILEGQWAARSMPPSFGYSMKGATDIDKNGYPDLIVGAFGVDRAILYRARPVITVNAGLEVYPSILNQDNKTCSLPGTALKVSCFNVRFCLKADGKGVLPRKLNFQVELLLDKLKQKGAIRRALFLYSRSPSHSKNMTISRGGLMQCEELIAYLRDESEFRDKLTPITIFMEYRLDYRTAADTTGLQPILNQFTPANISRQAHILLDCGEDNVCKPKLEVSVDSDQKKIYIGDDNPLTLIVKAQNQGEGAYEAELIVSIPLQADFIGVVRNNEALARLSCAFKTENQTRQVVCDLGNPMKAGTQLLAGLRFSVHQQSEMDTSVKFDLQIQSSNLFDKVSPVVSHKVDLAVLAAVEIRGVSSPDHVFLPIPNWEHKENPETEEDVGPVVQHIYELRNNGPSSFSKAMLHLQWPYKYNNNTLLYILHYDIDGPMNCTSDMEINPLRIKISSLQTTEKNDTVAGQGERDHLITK
T3 sequence (P06756 891-1048 partner limits assumed): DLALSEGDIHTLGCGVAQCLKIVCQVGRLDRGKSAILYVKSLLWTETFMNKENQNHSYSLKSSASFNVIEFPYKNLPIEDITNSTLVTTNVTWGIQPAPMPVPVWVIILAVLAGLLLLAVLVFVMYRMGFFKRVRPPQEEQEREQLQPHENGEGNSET
T3 sequence (P05106 27-788): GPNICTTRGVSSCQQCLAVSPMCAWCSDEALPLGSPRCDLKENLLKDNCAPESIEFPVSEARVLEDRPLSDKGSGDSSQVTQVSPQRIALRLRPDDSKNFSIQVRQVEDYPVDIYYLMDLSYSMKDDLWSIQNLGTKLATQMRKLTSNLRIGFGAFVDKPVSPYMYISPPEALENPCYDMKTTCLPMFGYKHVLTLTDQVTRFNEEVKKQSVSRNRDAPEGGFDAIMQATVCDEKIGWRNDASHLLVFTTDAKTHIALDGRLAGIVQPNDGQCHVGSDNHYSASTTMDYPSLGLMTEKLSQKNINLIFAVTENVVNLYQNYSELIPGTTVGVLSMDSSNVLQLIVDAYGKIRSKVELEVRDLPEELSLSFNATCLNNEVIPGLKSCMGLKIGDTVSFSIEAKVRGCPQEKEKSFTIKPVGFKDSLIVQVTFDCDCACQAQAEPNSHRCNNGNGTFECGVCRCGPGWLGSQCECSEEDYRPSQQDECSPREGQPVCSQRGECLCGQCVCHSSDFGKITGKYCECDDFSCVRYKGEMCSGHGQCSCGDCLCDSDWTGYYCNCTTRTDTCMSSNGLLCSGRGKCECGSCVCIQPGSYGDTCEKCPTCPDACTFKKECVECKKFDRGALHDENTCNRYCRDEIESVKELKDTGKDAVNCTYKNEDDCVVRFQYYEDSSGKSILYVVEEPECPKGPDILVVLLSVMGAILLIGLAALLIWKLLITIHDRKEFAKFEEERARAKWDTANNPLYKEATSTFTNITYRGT
The experiment in a line: 293/b3 cell adhesion assay for αvβ3 function. Type of experiment: cell-based. The following applies: 293/b3 cells, adhesion to human vitronectin. The procedure: 293/b3 Cell Adhesion Assay for αvβ3 Function.
as §1

T2 sequence (P06756 31-889 limits assumed): as the sequence (P06756 31-889 limits assumed) above
T2 sequence (P06756 891-992 partner limits assumed): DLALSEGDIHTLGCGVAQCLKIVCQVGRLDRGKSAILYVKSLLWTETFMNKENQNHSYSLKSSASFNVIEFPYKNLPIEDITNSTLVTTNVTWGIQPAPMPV
T2 sequence (P26012 43-684 limits assumed): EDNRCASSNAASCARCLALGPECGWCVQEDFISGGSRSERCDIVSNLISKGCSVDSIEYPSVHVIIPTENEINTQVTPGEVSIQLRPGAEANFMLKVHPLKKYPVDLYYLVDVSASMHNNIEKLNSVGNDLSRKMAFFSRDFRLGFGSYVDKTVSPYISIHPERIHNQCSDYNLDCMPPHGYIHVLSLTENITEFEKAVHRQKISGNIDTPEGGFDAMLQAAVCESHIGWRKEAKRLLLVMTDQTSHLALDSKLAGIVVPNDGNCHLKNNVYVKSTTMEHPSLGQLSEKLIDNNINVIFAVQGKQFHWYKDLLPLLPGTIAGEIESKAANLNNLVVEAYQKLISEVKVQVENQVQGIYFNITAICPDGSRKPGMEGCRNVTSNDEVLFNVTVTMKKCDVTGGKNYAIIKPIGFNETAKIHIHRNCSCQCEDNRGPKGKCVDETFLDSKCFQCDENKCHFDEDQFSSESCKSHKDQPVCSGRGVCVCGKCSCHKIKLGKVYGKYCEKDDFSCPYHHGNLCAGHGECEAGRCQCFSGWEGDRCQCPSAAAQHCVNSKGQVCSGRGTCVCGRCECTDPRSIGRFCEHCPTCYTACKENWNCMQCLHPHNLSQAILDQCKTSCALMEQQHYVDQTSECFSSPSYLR
T1 sequence (P06756 31-889 limits assumed): as the sequence (P06756 31-889 limits assumed) above
T1 sequence (P06756 891-1048 partner limits assumed): as the sequence (P06756 891-1048 partner limits assumed) above
T1 sequence (P18084 24-799): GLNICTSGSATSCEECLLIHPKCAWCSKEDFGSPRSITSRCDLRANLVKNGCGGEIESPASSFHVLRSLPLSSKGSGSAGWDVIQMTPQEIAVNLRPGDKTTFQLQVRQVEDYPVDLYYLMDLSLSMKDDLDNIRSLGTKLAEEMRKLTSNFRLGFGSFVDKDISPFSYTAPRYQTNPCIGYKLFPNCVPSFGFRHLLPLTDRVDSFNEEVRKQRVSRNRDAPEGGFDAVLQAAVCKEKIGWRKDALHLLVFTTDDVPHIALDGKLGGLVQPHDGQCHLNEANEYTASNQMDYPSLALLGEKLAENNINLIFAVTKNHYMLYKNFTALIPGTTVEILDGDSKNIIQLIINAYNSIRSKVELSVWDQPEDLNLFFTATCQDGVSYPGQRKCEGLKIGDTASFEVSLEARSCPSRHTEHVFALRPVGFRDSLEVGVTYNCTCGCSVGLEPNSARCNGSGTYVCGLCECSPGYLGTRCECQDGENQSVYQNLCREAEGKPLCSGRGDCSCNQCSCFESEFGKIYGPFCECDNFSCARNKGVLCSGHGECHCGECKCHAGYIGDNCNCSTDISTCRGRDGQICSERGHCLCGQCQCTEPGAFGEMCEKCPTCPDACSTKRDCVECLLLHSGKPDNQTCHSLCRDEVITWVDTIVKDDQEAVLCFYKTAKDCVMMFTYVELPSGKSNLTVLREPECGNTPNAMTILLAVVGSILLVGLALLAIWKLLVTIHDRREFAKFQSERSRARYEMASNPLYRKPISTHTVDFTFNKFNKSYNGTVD

With `CC(C)(C)c1cc(Br)cc([C@H](CC(=O)O)NC(=O)CNC(=O)c2cc(O)cc(NC3=NCC(O)CN3)c2)c1` (stereo partly drawn) [Example 1, (3S)—N-[3-hydroxy-5-[(1,4,5,6-tetrahydro-5-hydroxy-2-pyrimidinyl)amino]benzoyl]glycyl-3-(3-bromo-5-tert-butylphenyl)-β-alanine], the figures for the IC50 (on αvβ5; in experiment [1]; against αvβ3) were 51.7 nM, 0.23 nM and 0.8 nM, respectively.

For the origin of these results see patent US8716226B2, “3,5 phenyl-substituted beta amino acid derivatives as integrin antagonists” (Saint Louis University, priority 2012, dated 2014).
